Values of other authors in US20260248126A1, “BIOCIDE” (PURGOS APS, priority 2020, published 2026).

Conditions: cited from earlier work

For `[Cl-].[Na+]` [table salt (NaCl), NaCl], the “LD50 (rat, oral)” value is given as 3000 mg.
